Consider 33 compounds from US20260306502A1, “MITOCHONDRIAL UNCOUPLERS FOR TREATMENT OF METABOLIC DISEASES AND CANCER” (Mito Biopharma, LLC, priority 2022, published 2026).

As usually defined, the AUC is concentration integrated over time. A higher AUC goes with more exposure. As a reminder, the AUC(0-t) is exposure summed from dosing to a finite time, without extrapolation to infinity. Low readings indicate less exposure, high ones more exposure.

Data set [1] in a line: Metabolic stability assay in rat liver microsomes. The settings on record: 1 μM compound, 0.5 mg/ml microsomal protein, 37° C.; for half-life at 1 µM: rat, liver microsomes, read-out: Metabolic stability half-life (T1/2, min, rat liver microsome). Type of data set: in vitro ADME. The protocol: The metabolic stability of the compounds was evaluated in incubation with rat liver microsomes.
On the technique in general: Liver microsomes are a subcellular fraction often used to study metabolism.

In data set [2] the test system is cultured mammalian cells, the NIH-3T3 cells, C2C12 cells, and other mammalian cell lines. The experiment in a line: Mitochondrial membrane potential (MMP) assay, TMRE (or DilC1(5)) staining, related to OCR induction. It counts as cell-based. The settings on record: ratio of concentration leading to 10% MMP retention (90% MMP loss, TMRE) to minimal concentration leading to OCR increase. How it is done:
Mitochondrial membrane potential assay was performed using the standard TMRE (tetramethylrhodamine ethyl ester) staining method with cultured mammalian cells, the NIH-3T3 cells, C2C12 cells, and other mammalian cell lines. Cells were seeded in 6-well plates and cultured in DMEM medium supplemented with 10% fetal bovine serum and 2 mM glutamine. Cells were allowed to grow to the logarithmic growth phase prior to experiments. The cells were treated with each individual compound at various concentrations for two hours, followed by staining with TMRE at a final concentration of 100 nM for 15 minutes. The cells were then washed once with PBS, and examined under fluorescence microscopy. Cells treated with various concentrations of niclosamide ethanolamine were used as a positive control.
In some examples, mitochondrial membrane potential was measured with DilC1(5) staining. Briefly, DilC1(5) was added to the cells to 50 nM final concentration and the cells were incubated at 37° C., 5% CO2, for 15 to 30 minutes. Cells were washed once by adding 2 mL of warm phosphate-buffered saline (PBS). Mitochondrial staining was determined by fluorescence microscopy with 633 nm excitation using standard filters for far-red emission.
Using the ratio between C10% TMRE (the concentration at which 10% MMP remains, i.e. 90% MMP is lost) and Cmin-OCR (the concentration at which minimal OCR induction is observed), we categorized the MMP-retaining uncouplers into two groups.

For data set [3], the system named is high-fat diet (HFD)-induced diabetic mouse model. The experiment in a line: Efficacy in high-fat diet (HFD)-induced diabetic/fatty liver mouse model. Type of data set: in vivo. Conditions: Mus musculus; HFD model, oral daily gavage; read-out: Efficacious dosage to reduce blood glucose in mouse models, oral daily gavage. How it is done:
For HFD induced diabetic mouse model, C57Bl6 mice (male, n=6) were induced to obese and diabetic conditions by feeding high-fat diet (HFD, 60% fat calories, Research Diet, Inc. New Brunswick, NJ) for 3-4 months. […] During the 3-week period, the mice continued feeding HFD. […] The blood glucose levels were measured after an overnight fast, plasma insulin levels were tested after 5-6 hours fast, and the glycated HbA1c levels were determined in whole blood samples.
FIG. 15C and FIG. 15D show liver sections from mice fed HFD following 3 weeks of treatment with Compounds 25 and 64, respectively (P.O. dosing of 5 mg/kg, by daily gavage).
Experiments were similarly performed with other compounds, in either high-fat diet induced diabetes and fatty liver models, or in db/db mouse model, or in both, by daily oral gavage administration with low dosages.

For data set [4], the system named is C2C12 cells. The experiment in a line: Mitochondrial uncoupling activity by oxygen consumption rate (OCR) assay, Seahorse, in presence of oligomycin. It counts as cell-based, mouse. Conditions: for minimal effective concentration: Mus musculus, C2C12, in the presence of oligomycin 2.5 μM, read-out: COCR-min: minimal concentration increasing OCR in the presence of oligomycin. The procedure, abridged: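 Mouse C2C12 myoblasts grown in 10% FBS medium had OCR measured on Seahorse XF96/XF24 sequentially: basal, after 2.5 μM oligomycin (final), then after compound at varying concentrations. Rotenone/antimycin A confirmed mitochondrial origin. COCR-min is the minimal compound concentration inducing OCR in the presence of oligomycin.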

Data set [5] in a line: PO pharmacokinetic study, oral exposure (Example B3). Type of data set: in vivo. Conditions: blood, po; for AUC at 24 h: 10 mg/kg gavage. The protocol:
The blood concentration of the compound was then determined at 0 (pre-dosing), 5 min, 15 min, 30 min, 1 hr, 2 hr, 4 hr, 8 hr, 24 hr time points by LC-MS/MS analysis (See Tables 1 and 2, vide supra).

The test system of data set [6] is LX-2 cells (human hepatic stellate cells). The experiment in a line: Inhibition of TGFβ-induced hepatic stellate cell differentiation into myofibroblast-like cells. Type of data set: cell-based. Conditions: TGFβ 10 ng/ml; for minimal effective concentration: Homo sapiens, LX-2, hepatic stellate cell differentiation to myofibroblast-like cells, 24 hours, read-out: Minimal inhibitory concentration; for inhibition of TGFβ-induced hepatic stellate cell differentiation: in words. How it is done:
Liver fibrosis is one hallmark of NASH. […] This process could be modeled in vitro using the hepatic stellate differentiation experiment. The human hepatic stellate LX-2 cells were cultured within DMEM (Dulbecco's Modified Eagle Media, pH 7.4) supplied with 2% fetal bovine serum, 4.5 g/l glucose and 2 mM glutamine to 100 percent confluence. […] Cellular morphology was then examined under a microscope. As shown in FIG. 16 to FIG. 17, hepatic stellate cells could be induced by TGF-beta to differentiate into myofibroblast-like cells.

`CN(C)Cc1cc(Cl)cc(C(=O)Nc2nc3ccc(C(F)(F)F)cc3s2)c1O`: the half-life at 1 µM in data set [1] was 14.7 h.

For `CN(C)Cc1cc(Cl)cc(C(=O)Nc2nc3ccc(OC(F)(F)F)cc3s2)c1O`, in data set [1], the “Metabolic stability half-life (T1/2, min, rat liver microsome)” value is “∞”.

In the case of `O=C(Nc1nc2ccc(C(F)(F)F)cc2s1)c1cc(Cl)cc(CN2CCOCC2)c1O`, in data set [1], the half-life at 1 µM stood at 1.5 h.

Regarding `O=C(Nc1ccc(C(F)(F)F)cc1Cl)c1cc(Cl)ccc1O`, the C10%TMRE/Cmin-OCR result in data set [2] is “[drawing 351]”.

On to `O=C(Nc1ccc(C(F)(F)F)nc1)c1cc(Cl)ccc1O`, for which the C10%TMRE/Cmin-OCR entry in data set [2] is “[drawing 354]”.

On to `O=C(Nc1nc2ccc(C(F)(F)F)cc2s1)c1cc(Cl)cc(C2CCCO2)c1O` (stereo not drawn) [Compound 15, 5-chloro-2-hydroxy-3-(tetrahydrofuran-2-yl)-N-(6-(trifluoromethyl)benzo[d]thiazol-2-yl)benzamide], for which the minimal effective dose in data set [3] amounted to 2.5 mg/kg. Also, the minimal effective concentration in data set [4] is under 5 µM. Moreover, the AUC at 24 h in data set [5] was over 120 µg·h/mL.

Regarding `Cl.O=C(Nc1nc2ccc(C(F)(F)F)cc2s1)c1cc(Cl)cc(CN2CCOCC2)c1O` [Compound 16, 5-chloro-2-hydroxy-3-(morpholinomethyl)-N-(6-(trifluoromethyl)benzo[d]thiazol-2-yl)benzamide], the minimal effective dose in data set [3] came to 1 mg/kg. In data set [4], the minimal effective concentration was under 5 µM. Moreover, in data set [4] (in words), the “effect on oxygen consumption rate (OCR)” value is on record as “increase OCR in the presence of oligomycin”. Besides, in data set [6], the minimal effective concentration came to 5 µM and the “inhibition of TGFβ-induced hepatic stellate cell differentiation” value is listed as “able to directly inhibit hepatic stellate cell (HSC) activation in vitro”. The AUC at 24 h in data set [5] was 10 to 30 µg·h/mL.

Regarding `O=C(Nc1nc2ccc(C(F)(F)F)cc2s1)c1cc(Cl)cc(CN2CCCC2)c1O` [Compound 23, 5-chloro-2-hydroxy-3-(pyrrolidin-1-ylmethyl)-N-(6-(trifluoromethyl)benzo[d]thiazol-2-yl)benzamide], the minimal effective dose in data set [3] was 10 mg/kg. Besides, the minimal effective concentration was under 5 µM in data set [4] and 5 µM in data set [6]. The “inhibition of TGFβ-induced hepatic stellate cell differentiation” value in data set [6] was “able to directly inhibit hepatic stellate cell (HSC) activation in vitro”. The same compound had an area under the curve (AUC) at 24 h in data set [5] of 10 to 30 µg·h/mL.

On to `N#CC1CCN(Cc2cc(Cl)cc(C(=O)Nc3nc4ccc(C(F)(F)F)cc4s3)c2O)C1` (stereo not drawn) [Compound 36, 5-chloro-3-((3-cyanopyrrolidin-1-yl)methyl)-2-hydroxy-N-(6-(trifluoromethyl)benzo[d]thiazol-2-yl)benzamide], for which the C10%TMRE/Cmin-OCR in data set [2] was about 36. The minimal effective concentration in data set [4] was under 5 µM.

Regarding `CS(=O)(=O)C1CCN(Cc2cc(Cl)cc(C(=O)Nc3nc4ccc(C(F)(F)F)cc4s3)c2O)C1` (stereo not drawn) [Compound 37, 5-chloro-2-hydroxy-3-((3-(methylsulfonyl)pyrrolidin-1-yl)methyl)-N-(6-(trifluoromethyl)benzo[d]thiazol-2-yl)benzamide], in data set [2], the C10%TMRE/Cmin-OCR is given as about 37. For the same compound, the minimal effective concentration in data set [4] was over 10 µM.

For `COCCOCc1cc(F)cc(C(=O)Nc2nc3ccc(C(F)(F)F)cc3s2)c1O` [Compound 43], the C10%TMRE/Cmin-OCR in data set [2] was about 43. Further, the minimal effective concentration in data set [4] is under 5 µM.

`Cc1cc(Cl)cc(C(=O)Nc2nc3c(COCc4ccc(F)cc4)cc(C(F)(F)F)cc3s2)c1O` [Compound 83, 5-chloro-N-(4-(((4-fluorobenzyl)oxy)methyl)-6-(trifluoromethyl)benzo[d]thiazol-2-yl)-2-hydroxy-3-methylbenzamide]: the C10%TMRE/Cmin-OCR in data set [2] was about 83. Also, the minimal effective concentration in data set [4] is under 5 µM.

Regarding `Cc1cc(Cl)cc(C(=O)Nc2nc3c(CN4CCN(C)CC4)cc(C(F)(F)F)cc3s2)c1O` [Example 78, 5-chloro-2-hydroxy-3-methyl-N-(4-((4-methylpiperazin-1-yl)methyl)-6-(trifluoromethyl)benzo[d]thiazol-2-yl)benzamide], in data set [4], the minimal effective concentration is under 5 µM. Further, the AUC(0-t) at 24 h in data set [5] (10 mg/kg, 24 hr) worked out at 58.4 µg·h/mL. The same compound had an AUC at 24 h in data set [5] of 30 to 60 µg·h/mL.

With `COc1cc(Cl)cc(C(=O)Nc2nc3ccc(C(F)(F)F)cc3s2)c1O` [Example 97, 5-chloro-2-hydroxy-3-methoxy-N-(6-(trifluoromethyl)benzo[d]thiazol-2-yl)benzamide], the minimal effective concentration in data set [4] was under 5 µM. Besides, the AUC at 24 h in data set [5] was in the range of 10 to 30 µg·h/mL.

For the compound `COCCN(CCOC)Cc1cc(Cl)cc(C(=O)Nc2nc3ccc(C(F)(F)F)cc3s2)c1O` [drawing 263], in data set [1], the half-life at 1 µM was 0.467 h.

Regarding `O=C(Nc1nc2ccc(C(F)(F)F)cc2s1)c1cc(Cl)cc(CN2CCCCC2)c1O` [drawing 264], in data set [1], the half-life at 1 µM was 1.53 h.

Consider `O=C(Nc1nc2ccc(C(F)(F)F)cc2s1)c1cc(Cl)ccc1O` [drawing 300], for which, in data set [2], the C10%TMRE/Cmin-OCR result is “[drawing 300]”.

For `O=C(Nc1nc2ccc(C(F)(F)F)cc2s1)c1cc(Cl)ccc1O` [drawing 303], in data set [2], the C10%TMRE/Cmin-OCR result is “[drawing 303]”.

`O=C(Nc1nc2ccc(C(F)(F)F)cc2s1)c1cc(Cl)ccc1O` [drawing 306]: in data set [2], the C10%TMRE/Cmin-OCR result was “[drawing 306]”.

Consider `O=C(Nc1nc2ccc(C(F)(F)F)cc2s1)c1cc(Cl)ccc1O` [drawing 309], for which the C10%TMRE/Cmin-OCR result in data set [2] is “[drawing 309]”.

`O=C(Nc1nc2ccc(C(F)(F)F)cc2s1)c1cc(Cl)ccc1O` [drawing 312]: the C10%TMRE/Cmin-OCR result in data set [2] was “[drawing 312]”.

As for `O=C(Nc1nc2ccc(C(F)(F)F)cc2s1)c1cc(Cl)ccc1O` [drawing 315], the C10%TMRE/Cmin-OCR result in data set [2] is “[drawing 315]”.

On to `O=C(Nc1nc2ccc(C(F)(F)F)cc2s1)c1cc(Cl)ccc1O` [drawing 318], for which the C10%TMRE/Cmin-OCR entry in data set [2] was “[drawing 318]”.

As for `O=C(Nc1nc2ccc(C(F)(F)F)cc2s1)c1cc(Cl)ccc1O` [drawing 321], the C10%TMRE/Cmin-OCR entry in data set [2] is “[drawing 321]”.

Consider `Cc1cc(Cl)cc(C(=O)Nc2nc3ccc(C(F)(F)F)cc3s2)c1O` [drawing 324], for which the C10%TMRE/Cmin-OCR result in data set [2] is “[drawing 324]”.

With `Cc1cc(Cl)cc(C(=O)Nc2nc3ccc(C(F)(F)F)cc3s2)c1O` [drawing 327], in data set [2], the C10%TMRE/Cmin-OCR entry was “[drawing 327]”.

As for `Cc1cc(Cl)cc(C(=O)Nc2nc3ccc(C(F)(F)F)cc3s2)c1O` [drawing 330], in data set [2], the C10%TMRE/Cmin-OCR result was “[drawing 330]”.

As to `Cc1cc(Cl)cc(C(=O)Nc2nc3ccc(C(F)(F)F)cc3s2)c1O` [drawing 333], the C10%TMRE/Cmin-OCR entry in data set [2] is “[drawing 333]”.

For `COCc1cc(C(F)(F)F)cc2sc(NC(=O)c3cc(Cl)cc(C)c3O)nc12` [drawing 336], the C10%TMRE/Cmin-OCR entry in data set [2] was “[drawing 336]”.

Take `COCCOCc1cc(C(F)(F)F)cc2sc(NC(=O)c3cc(Cl)cc(C)c3O)nc12` [drawing 339]: the C10%TMRE/Cmin-OCR entry in data set [2] is “[drawing 339]”.

`COCCOCc1cc(C(F)(F)F)cc2sc(NC(=O)c3cc(Cl)cc(C)c3O)nc12` [drawing 342]: in data set [2], the C10%TMRE/Cmin-OCR entry is “[drawing 342]”.

As for `COCCOCc1cc(C(F)(F)F)cc2sc(NC(=O)c3cc(Cl)cc(C)c3O)nc12` [drawing 345], the C10%TMRE/Cmin-OCR entry in data set [2] was “[drawing 345]”.

For `COCCOCc1cc(C(F)(F)F)cc2sc(NC(=O)c3cc(Cl)cc(C)c3O)nc12` [drawing 348], in data set [2], the C10%TMRE/Cmin-OCR entry was “[drawing 348]”.
